Values after ≈ are worked out from the molar mass of the structure shown. Where two headings read alike, the source gives them in different places.
Assays:
Klebs.pneumo. 4200 = assay: In vivo activity (ED50) against Klebs.pneumo. 4200
E.coli 12140 = assay: In vivo activity (ED50) against E.coli 12140
E. coli HH 33779 = assay: In vitro antibacterial activity (MIC); assay type: cell-based; details: Escherichia coli, HH33779; E. coli HH 33779, in vitro; read-out: MIC
Experimental: (§1) The compounds of this invention have antibacterial activity against Gram-positive and Gram-negative organisms. Minimum inhibitory concentrations (MIC's) ranged from 0.4 to >200 μg/ml in in vitro testing.

Strep. faecalis HH 34358 = assay: In vitro antibacterial activity (MIC); assay type: cell-based; details: Enterococcus faecalis, HH34358; Strep. faecalis HH 34358, in vitro
Experimental: as §1

Proteus morgani 179 = assay: In vitro antibacterial activity (MIC); assay type: cell-based; details: Proteus morgani 179, in vitro; read-out: MIC
Experimental: as §1

[1] = tested on: Entero. aerog. ATCC 13048; assay: In vitro antibacterial activity (MIC); assay type: cell-based; details: Entero. aerog. ATCC 13048, in vitro; read-out: MIC
Experimental: as §1

Kleb. pneumo. SK 1200 = assay: In vitro antibacterial activity (MIC); assay type: cell-based; details: Kleb. pneumo. SK 1200, in vitro; read-out: MIC
Experimental: as §1

S.aureus Villaluz = assay: In vitro antibacterial activity (MIC); assay type: cell-based; details: Staphylococcus aureus
Experimental: as §1

[2] = tested on: Sal. paratyphl ATCC 12176; assay: In vitro antibacterial activity (MIC); assay type: cell-based
Experimental: as §1

Kleb. pneumo. SK 4200 = assay: In vitro antibacterial activity (MIC); assay type: cell-based; details: Kleb. pneumo. SK 4200, in vitro; read-out: MIC
Experimental: as §1

S.aureus SK 23390 = assay: In vitro antibacterial activity (MIC); assay type: cell-based; details: Staphylococcus aureus, SK23390; S.aureus SK 23390, in vitro; read-out: MIC
Experimental: as §1

E.coli SK 12140 = assay: In vitro antibacterial activity (MIC); assay type: cell-based; details: Escherichia coli, SK12140
Experimental: as §1

S.aureus HH 127 = assay: In vitro antibacterial activity (MIC); assay type: cell-based; details: Staphylococcus aureus, HH127; S.aureus HH 127, in vitro; read-out: MIC
Experimental: as §1

Shig. paradys HH 112 = assay: In vitro antibacterial activity (MIC); assay type: cell-based; details: Shig. paradys HH 112, in vitro; read-out: MIC
Experimental: as §1

[3] = po, Klebs.pneumo. 4200, p.o., read-out: ED50
[4] = sc, Klebs.pneumo. 4200, s.c., read-out: ED50
[5] = Escherichia coli, 12140, po, E.coli 12140, p.o.
[6] = Escherichia coli, 12140, sc, E.coli 12140, s.c.
[7] = E.coli SK 12140, in vitro, read-out: MIC

Q: How did the ED50 (Klebs.pneumo. 4200; [3]) turn out when `CC(=O)OCC1=C(C(=O)O)N2C(=O)C(NC(=O)[C@H](N)c3ccc(OCC(=O)O)cc3)C2SC1` (stereo partly drawn) [Compound No. 60326, 7-[D-α-Amino-α-(4'-carboxymethoxyphenyl)acetamido]-cephalosporanic acid] was run?
A: Its ED50 is 63 mg/kg.

Q: What about the ED50 (Klebs.pneumo. 4200; [4]) of the same compound?
A: The ED50 was 12.5 mg/kg.

Q: What about the ED50 (E.coli 12140; [5]) of the same compound?
A: Its ED50 is 200 mg/kg.

Q: And the ED50 (E.coli 12140; [6])?
A: Its ED50 is 11.2 mg/kg.

Q: And the MIC (E. coli HH 33779)?
A: The MIC was 25 µg/mL (≈ 52.1 µM).

Q: And the MIC (Strep. faecalis HH 34358)?
A: The MIC was 200 µg/mL (≈ 417 µM).

Q: What about the MIC (Proteus morgani 179) of the same compound?
A: Its MIC is greater than 200 µg/mL.

Q: What about the MIC [1] of the same compound?
A: The MIC was 25 µg/mL (≈ 52.1 µM).

Q: What about the MIC (Kleb. pneumo. SK 1200) of the same compound?
A: The MIC was 6.3 µg/mL (≈ 13.1 µM).

Q: What about the MIC (S.aureus Villaluz) of the same compound?
A: Its MIC is 200 µg/mL (≈ 417 µM).

Q: What about the MIC [2] of the same compound?
A: The MIC was 3.1 µg/mL (≈ 6.47 µM).

Q: And the MIC (Kleb. pneumo. SK 4200)?
A: The MIC was 6.3 µg/mL (≈ 13.1 µM).

Q: What about the MIC (S.aureus SK 23390) of the same compound?
A: Its MIC is 12.5 µg/mL (≈ 26.1 µM).

Q: And the MIC (E.coli SK 12140; [7])?
A: Its MIC is 6.3 µg/mL (≈ 13.1 µM).

Q: And the MIC (S.aureus HH 127)?
A: The MIC was 12.5 µg/mL (≈ 26.1 µM).

Q: For `Cc1nnc(SCC2=C(C(=O)O)N3C(=O)C(NC(=O)[C@H](N)c4ccc(SCCC(=O)O)cc4)C3SC2)s1` (stereo partly drawn) [Compound No. 61726, 7-[D-α-Amino-α-(4'-carboxyethylthiophenyl)acetamido]-3-(5-methyl-1,3,4-thiadiazol-2-ylthiomethyl)-3-cephem-4-carboxylic acid], which ED50 (Klebs.pneumo. 4200; [3]) is on record?
A: The ED50 was greater than 50 mg/kg.

Q: And the ED50 (Klebs.pneumo. 4200; [4])?
A: Its ED50 is 50 mg/kg.

Q: And the MIC (E. coli HH 33779)?
A: The MIC was 25 µg/mL (≈ 43 µM).

Q: And the MIC (Strep. faecalis HH 34358)?
A: The MIC was 50 µg/mL (≈ 86 µM).

Q: What about the MIC (Proteus morgani 179) of the same compound?
A: The MIC was 200 µg/mL (≈ 344 µM).

Q: What about the MIC [1] of the same compound?
A: Its MIC is 25 µg/mL (≈ 43 µM).

Q: What about the MIC (Kleb. pneumo. SK 1200) of the same compound?
A: The MIC was 6.3 µg/mL (≈ 10.8 µM).

Q: What about the MIC (S.aureus Villaluz) of the same compound?
A: Its MIC is 50 µg/mL (≈ 86 µM).

Q: What about the MIC [2] of the same compound?
A: Its MIC is 12.5 µg/mL (≈ 21.5 µM).

Q: And the MIC (Kleb. pneumo. SK 4200)?
A: Its MIC is 6.3 µg/mL (≈ 10.8 µM).

Q: What about the MIC (S.aureus SK 23390) of the same compound?
A: The MIC was 6.3 µg/mL (≈ 10.8 µM).

Q: What about the MIC (E.coli SK 12140) of the same compound?
A: Its MIC is 12.5 µg/mL (≈ 21.5 µM).

Q: And the MIC (S.aureus HH 127)?
A: Its MIC is 6.3 µg/mL (≈ 10.8 µM).

Q: Which results are given for `Cn1nnnc1SCC1=C(C(=O)O)N2C(=O)C(NC(=O)[C@H](N)c3ccc(NCC(=O)O)cc3)C2SC1` (stereo partly drawn) [Compound No. 76746, 7-[D-α-Amino-α-(4'-carboxymethylaminophenyl)acetamido]-3-(1-methyl-1,2,3,4-tetrazol-5-ylthiomethyl)-3-cephem-4-carboxylic acid]?
A: MIC (E. coli HH 33779): 1.6 µg/mL (≈ 2.99 µM); MIC (Shig. paradys HH 112): 3.1 µg/mL (≈ 5.8 µM); MIC (Strep. faecalis HH 34358): 100 µg/mL (≈ 187 µM); MIC (Proteus morgani 179): 6.3 µg/mL (≈ 11.8 µM); MIC [1]: 1.6 µg/mL (≈ 2.99 µM); MIC (Kleb. pneumo. SK 1200): 1.6 µg/mL (≈ 2.99 µM); MIC (S.aureus Villaluz): 50 µg/mL (≈ 93.5 µM); MIC [2]: 3.1 µg/mL (≈ 5.8 µM); MIC (Kleb. pneumo. SK 4200): 0.8 µg/mL (≈ 1.5 µM); MIC (S.aureus SK 23390): 6.3 µg/mL (≈ 11.8 µM); MIC (E.coli SK 12140; [7]): 1.6 µg/mL (≈ 2.99 µM); MIC (S.aureus HH 127): 6.3 µg/mL (≈ 11.8 µM)

Q: With `NC(=O)COc1ccc([C@@H](N)C(=O)NC2C(=O)N3C(C(=O)O)=C(CSc4c[nH]nn4)CSC23)cc1` (stereo partly drawn) [Compound No. 91726, 7-[D-α-Amino-α -(4'-carbamylmethoxyphenyl)acetamido]-3-(1,2,3-triazol-4-ylthiomethyl)-3-cephem-4-carboxylic acid] as the compound, how does the ED50 (Klebs.pneumo. 4200; [3]) read?
A: Its ED50 is 13.6 mg/kg.

Q: What about the ED50 (Klebs.pneumo. 4200; [4]) of the same compound?
A: The ED50 was 12.5 mg/kg.

Q: What about the ED50 (E.coli 12140; [5]) of the same compound?
A: The ED50 was 25 mg/kg.

Q: What about the ED50 (E.coli 12140; [6]) of the same compound?
A: Its ED50 is 14 mg/kg.

Q: And the MIC (E. coli HH 33779)?
A: The MIC was 25 µg/mL (≈ 48.1 µM).

Q: What about the MIC (Shig. paradys HH 112) of the same compound?
A: Its MIC is 6.3 µg/mL (≈ 12.1 µM).

Q: What about the MIC (Strep. faecalis HH 34358) of the same compound?
A: Its MIC is 200 µg/mL (≈ 385 µM).

Q: And the MIC [1]?
A: The MIC was 50 µg/mL (≈ 96.2 µM).

Q: And the MIC (Kleb. pneumo. SK 1200)?
A: The MIC was 12.5 µg/mL (≈ 24.1 µM).

Q: What about the MIC (S.aureus Villaluz) of the same compound?
A: The MIC was 50 µg/mL (≈ 96.2 µM).

Q: And the MIC [2]?
A: The MIC was 6.3 µg/mL (≈ 12.1 µM).

Q: And the MIC (Kleb. pneumo. SK 4200)?
A: The MIC was 12.5 µg/mL (≈ 24.1 µM).

Q: And the MIC (S.aureus SK 23390)?
A: Its MIC is 6.3 µg/mL (≈ 12.1 µM).

Q: What about the MIC (E.coli SK 12140; [7]) of the same compound?
A: Its MIC is 50 µg/mL (≈ 96.2 µM).

Q: And the MIC (S.aureus HH 127)?
A: Its MIC is 6.3 µg/mL (≈ 12.1 µM).

Q: With `COC(=O)CNc1ccc([C@@H](N)C(=O)NC2C(=O)N3C(C(=O)O)=C(CSc4nnc(C)s4)CSC23)cc1` (stereo partly drawn) [Compound No. 96146, 7-[D-α-Amino-α-(4'-carbomethoxymethylaminophenyl)-acetamido]-3-(5-methyl-1,3,4-thiadiazol-2-ylthiomethyl)-3-cephem-4-carboxylic acid] as the compound, how does the ED50 (Klebs.pneumo. 4200; [3]) read?
A: The ED50 was 17 mg/kg.

Q: What about the ED50 (Klebs.pneumo. 4200; [4]) of the same compound?
A: The ED50 was 2.9 mg/kg.

Q: And the ED50 (E.coli 12140; [5])?
A: Its ED50 is 16 mg/kg.

Q: And the ED50 (E.coli 12140; [6])?
A: The ED50 was 4.7 mg/kg.

Q: And the MIC (E. coli HH 33779)?
A: Its MIC is 100 µg/mL (≈ 177 µM).

Q: And the MIC (Shig. paradys HH 112)?
A: Its MIC is 25 µg/mL (≈ 44.3 µM).

Q: What about the MIC (Strep. faecalis HH 34358) of the same compound?
A: Its MIC is 25 µg/mL (≈ 44.3 µM).

Q: What about the MIC (Proteus morgani 179) of the same compound?
A: Its MIC is greater than 200 µg/mL.

Q: What about the MIC [1] of the same compound?
A: The MIC was 100 µg/mL (≈ 177 µM).

Q: And the MIC (Kleb. pneumo. SK 1200)?
A: The MIC was 50 µg/mL (≈ 88.5 µM).

Q: And the MIC (S.aureus Villaluz)?
A: The MIC was 50 µg/mL (≈ 88.5 µM).

Q: And the MIC [2]?
A: Its MIC is 25 µg/mL (≈ 44.3 µM).

Q: What about the MIC (Kleb. pneumo. SK 4200) of the same compound?
A: The MIC was 50 µg/mL (≈ 88.5 µM).

Q: And the MIC (S.aureus SK 23390)?
A: Its MIC is 6.3 µg/mL (≈ 11.2 µM).

Q: What about the MIC (E.coli SK 12140; [7]) of the same compound?
A: Its MIC is 50 µg/mL (≈ 88.5 µM).

Q: And the MIC (S.aureus HH 127)?
A: Its MIC is 6.3 µg/mL (≈ 11.2 µM).

Q: Which results are given for `COC(=O)COc1ccc([C@@H](N)C(=O)NC2C(=O)N3C(C(=O)O)=C(CSc4nnc(C)s4)CSC23)cc1` (stereo partly drawn) [Compound No. 96826, 7-[D-α-Amino-α-(4'-carbomethoxymethoxyphenyl)acetamido]-3-(5-methyl-1,3,4-thiadiazol-2-ylthiomethyl)-3-cephem-4-carboxylic acid]?
A: ED50 (Klebs.pneumo. 4200; po): 12.5 mg/kg; ED50 (Klebs.pneumo. 4200; [4]): 7.2 mg/kg; ED50 (E.coli 12140; [5]): 9.4 mg/kg; ED50 (E.coli 12140; [6]): < 3 mg/kg; MIC (E. coli HH 33779): 50 µg/mL (≈ 88.4 µM); MIC (Shig. paradys HH 112): 12.5 µg/mL (≈ 22.1 µM); MIC (Strep. faecalis HH 34358): 25 µg/mL (≈ 44.2 µM); MIC (Proteus morgani 179): 25 µg/mL (≈ 44.2 µM); MIC [1]: 50 µg/mL (≈ 88.4 µM); MIC (Kleb. pneumo. SK 1200): 25 µg/mL (≈ 44.2 µM); MIC (S.aureus Villaluz): 25 µg/mL (≈ 44.2 µM); MIC (Kleb. pneumo. SK 4200): 25 µg/mL (≈ 44.2 µM); MIC (S.aureus SK 23390): 3.1 µg/mL (≈ 5.48 µM); MIC (E.coli SK 12140; [7]): 25 µg/mL (≈ 44.2 µM); MIC (S.aureus HH 127): 3.1 µg/mL (≈ 5.48 µM)
